The TGI is the concentration at which net growth stops. Higher therefore signals less potent growth arrest. The term GI50 denotes the concentration that inhibits growth by half.

Among the data in PubChem BioAssay (NCI) are TGI and GI50 values, retold here.

Assay in all cases: DTP human tumour cell line panel, 48 h
The test system of test [1] is OVCAR-5 ovarian.
For test [2], the system named is HCT-15 colon.
The test system of test [3] is TK-10 renal.
Test [4] relates to NCI-H522 lung.
Test [5] concerns KM12 colon.
Test [6] deals with OVCAR-4 ovarian.
The test system of test [7] is UO-31 renal.
Test [8] has as its system UACC-62 melanoma.
Test [9] concerns LOX IMVI melanoma.
Test [10] concerns RXF 393 renal.

Values joined by “and” are separate entries in the source; they are usually repeats but may differ in a detail not shown here. Identical values can stand only once.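 A five-concentration, 48-hour dose response in 96-well plates underlies each endpoint, interpolated linearly between surrounding concentrations. Abbreviation: GI50, concentration required for 50% inhibition of growth. The concentration for full growth arrest is given as TGI.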

Turning to `COc1ccc(CCC2NCCc3cc(OC)c(OC)cc32)cc1` (configuration not stated), the TGI in test [1], in [2], in [3], in test [4], in test [5] and in test [6] was more than 100 µM each time. In [7], this compound showed a TGI of more than 100 µM.

Turning to `COc1cc2c3c(n(CCCNCCN4CCOCC4)c(=O)c2cc1OC)-c1cc2c(cc1C3=O)OCO2`, the GI50 in test [1] was 913 nM and 2310 nM; in test [2] it was 453 nM and 2140 nM; in test [8], 1380 nM; in test [3], 7.2 µM and 7.5 µM; in test [4], 2150 nM; in test [5], 554 nM and 1480 nM. The GI50 in test [7] is 5.98 µM and 2.19 µM; in test [9], 1.04 µM. The TGI in test [1] was 1.74 µM and 5.16 µM; in [8] it was 7.58 µM; in test [3] it was 14.8 µM and 23.5 µM; in test [4], more than 100 µM; in test [5] it was 1.6 µM and 4.69 µM; in test [6] it was 50 µM and 12.2 µM. Further, the TGI in test [7] is 15.2 µM and > 100 µM; in test [9], 3.34 µM.

As to `COc1ccc(S(=O)(=O)N/N=C(\C)CN2C(=O)c3ccccc3C2=O)cc1`, the TGI in test [1], in test [2], in [8], in [3], in [4] and in test [5] was more than 100 µM in each case. The TGI in test [6], in test [7] and in test [9] was more than 100 µM in each case.

For `O=[N+]([O-])c1ccc(O)c2ncccc12`, the TGI in test [1] was > 100 µM and 40.5 µM; in [2], > 100 µM and 18.8 µM; in test [8] it was > 100 µM and 11.6 µM; in test [3] it was > 100 µM and 30.3 µM; in [5] it was > 100 µM and 16.5 µM; in test [7], > 100 µM and 20.8 µM. Also, the TGI in test [10] is > 100 µM and 18.2 µM; in test [9] it was > 100 µM and 13 µM. Besides, the GI50 in test [5] was 3920 nM and 4310 nM; in test [7] it was 18.7 µM and 3.93 µM.

Consider `O=C1CCC2CCOc3ccc(O)c1c32` (configuration not stated), for which the TGI in test [1], in test [2], in [8], in [3], in test [4] and in test [5] was more than 100 µM in each case. The TGI in test [6], in test [7] and in test [10] was more than 100 µM each time.

In the case of `O=[N+]([O-])c1ccc2c(c1)S(=O)c1ccccc1-2` (configuration not stated), the TGI in test [1], in [2], in [8], in test [3], in [4] and in test [5] was more than 100 µM in each case. The TGI in [6] and in [9] was more than 100 µM in each case.

`Cc1cccc(N2C(=O)C(=O)C(c3nc4ccccc4s3)C(=O)C2=O)c1C`: the TGI in [1], in [2], in test [8], in test [3], in test [4] and in test [6] was more than 100 µM each time. The TGI in [7] and in test [9] was more than 100 µM each time.

Turning to `C=CCNc1cccc2c1C(=O)c1ccccc1C2(O)CC=C` (configuration not stated), the GI50 was 31500 nM in test [1]; 15500 nM in [2]; 10600 nM in test [8]; 25.2 µM in [3]; 18400 nM in [4]; 23600 nM in test [5]. The GI50 was 26.2 µM in [6], 27.7 µM in test [7] and 18.6 µM in test [9]. Besides, the TGI in test [1] was 67.9 µM; in test [2], 57 µM; in [8], 24.4 µM; in test [3] it was 57.8 µM; in [4], 51.6 µM; in [5] it was 56.9 µM. The concentration for total growth inhibition (TGI) in test [6] was more than 100 µM; in test [7], more than 100 µM; in test [9], 35.9 µM.

Turning to `C=CCC(C)(C(=O)NCCC)C(=O)c1ccccc1O` (configuration not stated), the TGI in test [2], in test [8], in test [3], in [4], in [5] and in test [6] was more than 100 µM throughout. The TGI in test [7] and in test [10] was more than 100 µM each time.

`CC1=N/C(=C\c2cccc3ccccc23)C(=O)O1`: the TGI in test [1], in test [2], in [8], in test [3], in test [4] and in [5] was more than 100 µM each time. Besides, the TGI in test [7] and in test [10] was more than 100 µM each time.

For the compound `C=C1C(=O)O[C@H]2[C@H]1CC(=O)/C(C)=C\CC[C@@]1(C)O[C@@H]21`, the GI50 in [1] was 4.16 µg/mL; in [2], 0.83 µg/mL; in [8] it was 2.75 µg/mL; in [3], 1.93 µg/mL; in test [4], 0.411 µg/mL; in test [5], 4.77 µg/mL. For the same compound, the GI50 in test [6] is 3.75 µg/mL; in test [7], 2.61 µg/mL; in test [10] it was 2.95 µg/mL. Further, the TGI stood at 8.24 µg/mL in test [1]; 3.68 µg/mL in test [2]; 6.02 µg/mL in [8]; 5.38 µg/mL in [3]; 0.957 µg/mL in [4]; 8.79 µg/mL in test [5]. Moreover, the values for the TGI in test [6], in test [7] and in test [10] were 8.12 µg/mL, 5.85 µg/mL and 9.41 µg/mL, respectively.

As for `COC(=O)[C@H](Cc1ccccc1)NC(=O)[C@@H](OC)[C@@H]1Cc2cc3cc(OC4CC(OC5CC(O)C(O)C(C)O5)C(O)C(C)O4)c(C)c(O)c3c(O)c2C(=O)[C@H]1OC1CC(OC2CC(OC3CC(C)(O)C(O)C(C)O3)C(O)C(C)O2)C(O)C(C)O1` (some centres not stated), the GI50 in [1] is 39.6 nM; in [2] it was 72.5 nM; in test [8] it was 4.73 nM; in test [3] it was 0.0439 µM; in test [4], 6.4 nM; in test [5], 14.8 nM. The GI50 was 0.0277 µM in [6], 0.0343 µM in test [7] and 4.6 nM in test [10]. In addition, the total growth inhibition concentration (TGI) was more than 14.3 µM in test [1]; more than 14.3 µM in [2]; 0.0209 µM in test [8]; more than 14.3 µM in [3]; 1.72 µM in [4]; 0.12 µM in [5]. The TGI in test [6] is more than 14.3 µM; in test [7], 0.332 µM; in test [10], 0.0252 µM.
